{
  "source": "patent US7915291B2",
  "about": "“Hepatitis C virus inhibitors” (Bristol-Myers Squibb Company, priority 2002, dated 2011)",
  "key": {"[1]": {"target": "T1, HCV NS3/4A protease complex, H77C strain (Hepatitis C virus genotype 1a, UniProt P27958, C1454S)", "T1 construct": "recombinant HCV NS3/4A protease complex (amino acids 1027 to 1711); inferred from pET21b vector and Ni-NTA purification; made in house; host or cells: Escherichia coli BL21 (DE3), pET21b", "T1 sequence (P27958 1027-1657 C1454S)": "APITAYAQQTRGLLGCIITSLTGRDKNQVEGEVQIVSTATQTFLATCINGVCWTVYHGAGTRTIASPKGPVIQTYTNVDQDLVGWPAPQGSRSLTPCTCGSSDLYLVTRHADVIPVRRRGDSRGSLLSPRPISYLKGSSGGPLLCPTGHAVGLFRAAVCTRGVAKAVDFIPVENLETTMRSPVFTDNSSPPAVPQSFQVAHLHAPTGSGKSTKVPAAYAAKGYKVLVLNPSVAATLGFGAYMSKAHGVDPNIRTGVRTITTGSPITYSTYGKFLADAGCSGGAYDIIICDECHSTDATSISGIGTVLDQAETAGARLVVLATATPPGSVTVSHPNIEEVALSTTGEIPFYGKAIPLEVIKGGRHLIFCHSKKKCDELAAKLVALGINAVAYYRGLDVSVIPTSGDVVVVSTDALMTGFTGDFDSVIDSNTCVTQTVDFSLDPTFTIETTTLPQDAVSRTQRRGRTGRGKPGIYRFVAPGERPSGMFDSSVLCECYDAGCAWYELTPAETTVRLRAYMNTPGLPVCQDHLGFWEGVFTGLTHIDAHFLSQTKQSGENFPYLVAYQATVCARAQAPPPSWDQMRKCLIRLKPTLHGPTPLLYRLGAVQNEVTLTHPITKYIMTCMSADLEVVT", "T1 sequence (P27958 1658-1714 partner, looked up, stated change not applied)": "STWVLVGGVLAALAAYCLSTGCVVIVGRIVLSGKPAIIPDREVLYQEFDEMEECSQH", "assay": "Recombinant HCV NS3/4A protease complex FRET peptide assay (H77C strain)", "assay_type": "biochemical, HCV genotype 1a", "text": "Recombinant HCV NS3/4A Protease Complex FRET Peptide Assay\nThe purpose of this in vitro assay was to measure the inhibition of HCV NS3 protease complexes, derived from the BMS, H77C or J416S strains, as described below, by compounds of the present invention. This assay provides an indication of how effective compounds of the present invention would be in inhibiting HCV proteolytic activity.\nSerum from an HCV-infected patient was obtained from Dr. T. Wright, San Francisco Hospital. An engineered full-length cDNA (compliment deoxyribonucleic acid) template of the HCV genome (BMS strain) was constructed from DNA fragments obtained by reverse transcription-PCR(RT-PCR) of serum RNA (ribonucleic acid) and using primers selected on the basis of homology between other genotype 1a strains. From the determination of the entire genome sequence, a genotype 1a was assigned to the HCV isolate according to the classification of Simmonds et al. (See P Simmonds, Kans. Rose, S Graham, S W Chan, F McOmish, B C Dow, E A Follett, P L Yap and H Marsden, J. Clin. Microbiol., 31(6), 1493-1503 (1993)). […]"}, "[2]": {"target": "T2, porcine pancreatic elastase (PPE) (Sus scrofa, UniProt P00772)", "T2 construct": "purchased Sigma", "T2 sequence (P00772 27-266)": "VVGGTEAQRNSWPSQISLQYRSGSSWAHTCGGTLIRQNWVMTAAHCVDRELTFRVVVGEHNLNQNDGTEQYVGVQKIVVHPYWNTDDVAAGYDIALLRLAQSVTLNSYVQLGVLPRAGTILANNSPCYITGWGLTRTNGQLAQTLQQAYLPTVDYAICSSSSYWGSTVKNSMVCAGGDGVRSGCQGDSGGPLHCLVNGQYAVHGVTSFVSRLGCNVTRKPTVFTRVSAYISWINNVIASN", "assay": "Specificity assay, PPE", "assay_type": "biochemical", "settings": "2 hr pre-incubation", "protocol": "The specificities of compounds of the present invention were determined against a variety of serine proteases: human leukocyte elastase (HLE), porcine pancreatic elastase (PPE) and human pancreatic chymotrypsin and one cysteine protease: human liver cathepsin B. In all cases a 96-well plate format protocol using colorimetric p -nitroaniline (pNA) substrate specific for each enzyme was used as described previously (Patent WO 00/09543) with some modifications to the serine protease assays. All enzymes were purchased from Sigma while the substrates were from Bachem.\nEach assay included a 2 hr enzyme-inhibitor pre-incubation at RT followed by addition of substrate and hydrolysis to ˜30% conversion as measured on a Spectramax Pro microplate reader. Compound concentrations varied from 100 to 0.4 μM depending on their potency. […]\nThe percentage of inhibition was calculated using the formula: [1−((UVinh−UVblank)/(UVctl−UVblank))]×100 […]"}},
  "data": [
    {"molecule": "C=C[C@@H]1C[C@]1(NC(=O)[C@@H]1C[C@@H](Oc2nc(C3CC3)cc3ccccc23)CN1C(=O)[C@@H](NC(=O)OC(C)(C)C)C(C)(C)C)C(=O)NS(=O)(=O)C1CC1", "note": "[Compound 34]", "values": [
      {"measurement": "IC50", "setting": "[1]", "value": 3, "unit": "nM"},
      {"measurement": "IC50", "setting": "[2]", "value": "> 200000", "unit": "nM"}
    ]}
  ]
}
